# From patent publication US5814646A, “Inhibitors of amyloid beta-protein production” (Eli Lilly and Company, priority 1995, dated 1998)
# Tested on: Aβ production in 293 751 SWE and CHO 751 SWE cells (transfected with APP-751 Swedish mutation)
# Test: Aβ production inhibition activity in cells (Aβ ELISA of conditioned media, normalized for cytotoxicity by MTT)
# Format: cell-based
# Conditions: 10 μg/ml, % of drug-free control, normalized to MTT
# Experimental: Two cell lines (human kidney cell line 293 and Chinese hamster ovary cell line CHO) were stably transfected with the gene for APP-751 containing the double mutation Lys651 -Met652 to Asn651 -Leu652 (APP-751 numbering) commonly called the Swedish mutation using the method described in Citron et al., (1992) Nature 360:672-674. The transfected cell lines were designated as 293 751 SWE and CHO 751 SWE, and were plated in Corning 96 well plates at 2.5×10^4 or 1×10^4 cells per well respectively in Dulbecco's minimal essential media plus 10% fetal bovine serum. Following overnight incubation at 37° C. in an incubator equilibrated with 10% carbon dioxide (CO2), the media were removed and replaced with 200 μL per well of media containing a test compound. After a two hour pretreatment period, the media were again removed and replaced with fresh media containing the test compound and the cells were incubated for an additional two hours.
# Test compound stocks were prepared in DMSO such that at the final concentration used in the treatment, the concentration of DMSO did no exceed 0.5%. After treatment, plates were centrifuged in a Beckman GPR at 1200 rpm for five minutes at room temperature to pellet cellular debris from the conditioned media. From each well, 100 μL of conditioned media were transferred into an ELISA plate precoated with antibody 266 against βAP-13-28 (Seubert et al., supra.) and stored at 4° C. overnight. An ELISA assay employing labeled antibody 6C6 (against βAP-1-16) was run the next day to measure the amount of Aβ produced.
# Cytotoxic effects of the test compounds were measured by a modification of the method of Hansen et al., (1989) J. Immun. Meth. 119:203-210. To the cells remaining in the tissue culture plate, was added 25 μL of a 3, (4,5-dimethylthiazol-2-yl)2,5-diphenyltetrazolium bromide (MTT) stock solution (5 mg/mL) to a final concentration of […]. Cells were incubated at 37° C. for one hour, and cellular activity was stopped by the addition of an equal volume of MTT lysis buffer (20% w/v sodium dodecylsulfate in 50% DMF, pH 4.7). Complete extraction was achieved by overnight shaking at room temperature. The difference in the OD562 nm and the OD650 nm was measured in a Molecular Devices UVmax microplate reader as an indicator of the cellular viability.
# The results of the Aβ ELISA were fit to a standard curve and expressed as ng/mL Aβ peptide. In order to normalize for cytotoxicity, these Aβ results were divided by the MTT results and expressed as a percentage of the results from a drug -free control.
# The test compounds were assayed for Aβ production inhibition activity in cells at […] using the test. The results presented in Table 1 are the mean and standard deviation of at least six replicate assays. IC50 means the concentration of test compound in micromoles/liter required to inhibit Aβ production by 50%.
SMILES,inhibition at 10 µg/mL [%],"Aβ Production Inhibition Activity, % inhibition at 10 μg/ml [%]"
O=C(Nc1ccc(Cl)c(Cl)c1)Nc1ncccn1 [Compound 138],7,
COC(=O)c1ccccc1NC(=O)Nc1ccc(Cl)c(Cl)c1 [Compound 142],22,
COc1ccc(NC(=O)Nc2ccc(Cl)c(Cl)c2)c(OC)c1 [Compound 144],41,
CSc1ccc(NC(=O)Nc2ccc(Cl)cc2)cc1 [Compound 156],13,
CSc1ccc(NC(=O)Nc2ccccc2Cl)cc1 [Compound 157],41,
CSc1ccc(NC(=O)Nc2cccc(Cl)c2Cl)cc1 [Compound 158],51,
CSc1ccc(NC(=O)Nc2ccc(Cl)cc2Cl)cc1 [Compound 159],4,
CSc1ccc(NC(=O)Nc2cc(Cl)c(Cl)cc2C)cc1 [Compound 160],48,
CS(=O)(=O)c1ccc(NC(=O)Nc2ccc(Cl)cc2)cc1 [Compound 161],40,
COC(=O)c1ccc(NC(=O)Nc2ccc(Cl)c(C(F)(F)F)c2)cc1OC [Compound 165],42,
CC(C)(C)c1ccccc1Oc1ccc(NC(=S)Nc2ccc(Cl)c(C(F)(F)F)c2)cc1 [Compound 174],66,
CC(C)(C)c1ccc(Oc2ccccc2NC(=S)NCc2ccccc2)cc1 [Compound 181],52,
CC(C)(C)c1ccc(Oc2ccccc2NC(=S)NCc2ccc(Cl)c(Cl)c2)cc1 [Compound 183],24,
Cc1ccc(CNC(=S)Nc2ccccc2Oc2ccc(C(C)(C)C)cc2)cc1C [Compound 184],36,
CCCCCCNC(=S)Nc1ccccc1Oc1ccc(C(C)(C)C)cc1 [Compound 185],21,
CC(C)(C)c1cccc(Oc2ccc(NC(=S)Nc3ccccc3C(F)(F)F)cc2)c1 [Compound 189],37,
CC(C)(C)c1ccc(Oc2ccc(NC(=S)Nc3ccc(Cl)cc3)cc2)cc1 [Compound 191],33,
CCCc1cc(C(C)(C)C)ccc1Oc1ccc(NC(=S)Nc2ccc(Cl)c(C(F)(F)F)c2)cc1 [Compound 193],29,
CCCc1cc(C(C)(C)C)ccc1Oc1ccc(NC(=S)NCc2cccc(C)c2)cc1 [Compound 194],31,
CCCc1cc(C(C)(C)C)ccc1Oc1ccc(NC(=S)Nc2ccc(C)c(C)c2)cc1 [Compound 196],44,
CCCCCCNC(=S)Nc1ccc(C(=O)c2ccccc2)c(O)c1CCC [Compound 202],42,
CCCc1c(NC(=S)Nc2ccc(C(C)(C)C)cc2)ccc(C(=O)c2ccccc2)c1O [Compound 203],2,
O=C(Nc1ccc(Cl)c(Cl)c1)c1ccccn1 [Compound 227],,32
O=C(Nc1ccc(Cl)c(Cl)c1)N1CCCCC1 [Compound 229],,8
CCN1CCCC(C(=O)Nc2ccc(Cl)c(Cl)c2)C1 (stereo not shown) [Compound 230],,28

# Same assay, conditions: 2 h pretreatment + 2 h incubation
row,SMILES,IC50 [µM]
1,CCCCCCNC(=S)Nc1ccc(Oc2ccc(C(C)(C)C)cc2)cc1 [Compound 135],10.6
2,O=C(Nc1ccc(Cl)c(Cl)c1)Nc1cccc2ncccc12 [Compound 136],17.8
3,O=C(Nc1ccc(Cl)c(Cl)c1)Nc1nc2ccccc2s1 [Compound 137],10.3
4,S=C(Nc1ccc(Cl)cc1)Nc1ccc(Cl)c(Cl)c1 [Compound 139],6.6
5,O=C(Nc1ccc(Cl)c(Cl)c1)Nc1nc2ccccc2[nH]1 [Compound 140],17.4
6,Cc1cc2nc(NC(=O)Nc3ccc(Cl)c(Cl)c3)[nH]c2cc1C [Compound 143],14.9
7,O=C(Nc1ccc(Sc2ccc(Cl)c(Cl)c2)cc1)Nc1ccc(Cl)c(Cl)c1 [Compound 145],6.2
8,S=C(NCc1ccccc1)Nc1ccc(Cl)c(Cl)c1 [Compound 146],21.8
9,FC(F)(F)c1cccc(NC(=S)Nc2ccc(Cl)c(Cl)c2)c1 [Compound 147],4.7
10,S=C(Nc1ccc(Oc2ccccc2)cc1)Nc1ccc(Cl)c(Cl)c1 [Compound 148],7.5
11,CSc1ccc(NC(=O)Nc2ccc(Cl)c(Cl)c2)cc1 [Compound 149],13.8
12,CSc1ccc(NC(=O)Nc2ccc(Cl)c(Cl)c2)cc1Br [Compound 150],5.2
13,O=C(Nc1ccc(Cl)c(Cl)c1)Nc1ccccc1Cl [Compound 151],10.1
14,O=C(Nc1ccccc1)Nc1ccc(Cl)c(Cl)c1 [Compound 152],11.4
15,S=C(Nc1ccc(Cl)c(Cl)c1)Nc1ccc(Cl)c(Cl)c1 [Compound 153],1.7
16,CSc1ccc(NC(=O)Nc2ccc(Cl)c(Cl)c2)cc1 [Compound 154],8.6
17,CSc1ccc(NC(=O)Nc2cc(Cl)c(Cl)c(Cl)c2)cc1 [Compound 155],5.8
18,CSc1ccc(NC(=O)Nc2cccc(Cl)c2)cc1Br [Compound 162],5.7
19,CSc1cc(Cl)c(NC(=O)Nc2cccc(Cl)c2)cc1Cl [Compound 163],10.5
20,CSc1ccc(NC(=O)Nc2ccc(SC)c(Br)c2)cc1 [Compound 164],14.4
21,FC(F)(F)c1cc(NC(=S)Nc2ccc(Cl)c(C(F)(F)F)c2)ccc1Cl [Compound 166],2.8
22,CC(C)(C)c1ccc(Oc2cccc(NC(=S)Nc3ccc(Cl)c(C(F)(F)F)c3)c2)cc1 [Compound 168],3.9
23,CC(C)(C)c1cccc(Oc2ccc(NC(=S)Nc3ccc(Cl)c(C(F)(F)F)c3)cc2)c1 [Compound 169],4.6

row,SMILES,IC50 [µM]
1,CC(C)(C)c1ccc(Oc2ccccc2NC(=S)Nc2ccc(Cl)c(C(F)(F)F)c2)cc1 [Compound 170],4.4
2,CC(C)(C)c1ccc(Oc2ccccc2N(O)C(=S)Nc2ccc(Cl)c(C(F)(F)F)c2)cc1 [Compound 171],10.8
3,CC(C)(C)c1cccc(Oc2cccc(NC(=S)Nc3ccc(Cl)c(C(F)(F)F)c3)c2)c1 [Compound 172],3.8
4,CC(C)(C)c1cccc(Oc2cccc(N(O)C(=S)Nc3ccc(Cl)c(C(F)(F)F)c3)c2)c1 [Compound 173],2.8
5,CC(C)(C)c1ccc(Oc2ccc(NC(=S)Nc3cccc(C(F)(F)F)c3)cc2)cc1 [Compound 175],7.3
6,CC(C)(C)c1cccc(Oc2ccc(NC(=S)Nc3cccc(C(F)(F)F)c3)cc2)c1 [Compound 176],4.6
7,CC(C)(C)c1ccccc1Oc1ccc(NC(=S)Nc2cccc(C(F)(F)F)c2)cc1 [Compound 177],7.6
8,CC(C)(C)c1cccc(Oc2ccc(NC(=S)NCc3cccc(C(F)(F)F)c3)cc2)c1 [Compound 178],8.6
9,CC(C)(C)c1ccc(Oc2ccc(NC(=S)NCc3cccc(C(F)(F)F)c3)cc2)cc1 [Compound 179],6.5
10,CC(C)(C)c1ccc(Oc2ccccc2CN(O)C(=S)NCc2ccccc2)cc1 [Compound 180],11.6
11,CCCCCCNC(=S)N(O)Cc1ccccc1Oc1ccc(C(C)(C)C)cc1 [Compound 182],34
12,CC(C)(C)c1ccc(Oc2cccc(NC(=S)NCc3ccccc3)c2)cc1 [Compound 186],9
13,CC(C)(C)c1cccc(Oc2cccc(CN(O)C(=S)NCc3ccccc3)c2)c1 [Compound 187],12.1
14,CC(C)(C)c1ccccc1Oc1ccc(NC(=S)NCc2ccccc2)cc1 [Compound 188],9.4
15,CC(C)(C)c1ccccc1Oc1ccc(NC(=S)Nc2ccccc2C(F)(F)F)cc1 [Compound 190],13.8
16,CC(C)(C)c1ccc(Oc2cccc(NC(=S)Nc3ccc(Cl)cc3)c2)cc1 [Compound 192],8.8
17,CCCc1cc(C(C)(C)C)ccc1Oc1ccc(NC(=S)Nc2cccc(C(F)(F)F)c2)cc1 [Compound 195],11
18,CCCc1cc(C(C)(C)C)ccc1Oc1ccc(NC(=S)NCc2ccccc2)cc1 [Compound 197],4.6
19,CC(C)(C)c1ccc(Oc2ccc(CSC(=S)NCc3ccccc3)cc2)cc1 [Compound 198],10
20,CCCc1c(CSC(=S)NCc2ccccc2)ccc(C(C)=O)c1O [Compound 199],2
21,CCCc1c(NC(=S)Nc2cccc(C(F)(F)F)c2)ccc(C(=O)c2ccccc2)c1O [Compound 201],20
22,FC(F)(F)c1cc(NC(=S)Nc2ccc(Sc3ccccn3)cc2)ccc1Cl [Compound 223],8.3
